Counter-ions that a name gives are not always drawn. Like-named read-outs stand apart in the source and are kept apart here.
Tests used:
[1] = tested on: NCI-H292 lung cancer cells; assay: FDA drug screening, complete media vs cholesterol-free media without statin (TABLE 1); type: cell-based, human
[2] = tested on: NCI-H292 lung cancer cells; assay: FDA drug screening, complete media vs cholesterol-free media with simvastatin (TABLE 2); type: cell-based, human
[3] = Complete minus Cholesterol-free, >0 enhanced anti-cancer activity, about 0 neutral, <0 antagonist
[4] = NCI-H292 cells, cholesterol-free media without statin, FDA drug library screen
[5] = NCI-H292 cells, complete media, FDA drug library screen
[6] = NCI-H292 cells, FDA drug library screen, cholesterol-free media with simvastatin 0.04 μM
[7] = NCI-H292 cells, FDA drug library screen, complete media
[8] = complete media minus cholesterol-free media + simvastatin, >0 enhanced anti-cancer activity, about 0 neutral, <0 antagonist
[9] = NCI-H292 cells, cholesterol-free media without statin
[10] = complete vs cholesterol-free media, […]
[11] = complete media vs cholesterol-free media + simvastatin (0.04 μM), […]
[12] = Complete minus Cholesterol-free, greater than 0 enhanced anti-cancer activity, about 0 neutral, below 0 antagonist
[13] = NCI-H292 cells, FDA drug library screen, cholesterol-free media without statin
[14] = NCI-H292 cells, cholesterol-free media with simvastatin 0.04 μM, cell growth value in FDA drug screen
[15] = NCI-H292 cells, complete media, cell growth value in FDA drug screen
[16] = NCI-H292 cells, cholesterol-free media with simvastatin 0.04 μM, FDA drug library screen (TABLE 2)
[17] = NCI-H292 cells, complete media, FDA drug library screen (TABLE 2)
[18] = complete media minus cholesterol-free media + simvastatin (0.04 μM), >0 enhanced anti-cancer activity, about 0 neutral, <0 antagonist
[19] = NCI-H292 cells in cholesterol-free media without statin
[20] = NCI-H292 cells in complete media
[21] = complete vs cholesterol-free media, greater than 0 enhanced anti-cancer activity, about 0 neutral, below 0 antagonists
[22] = Complete minus Cholesterol-free, greater than 0 enhanced anti-cancer activity, about 0 neutral, below 0 antagonists
[23] = complete vs cholesterol-free media, >0 enhanced anti-cancer activity, about 0 neutral, <0 antagonist
[24] = NCI-H292 cells, drug in cholesterol-free media with simvastatin 0.04 μM
[25] = NCI-H292 cells, drug in complete media
[26] = complete media vs cholesterol-free media + simvastatin (0.04 μM), >0 enhanced anti-cancer activity, about 0 neutral, <0 antagonist
[27] = NCI-H292 cells, FDA library drug in cholesterol-free media with simvastatin 0.04 μM
[28] = NCI-H292 cells, FDA library drug in complete media

Sulconazole (nitrate)
Difference [1, 3]: 0.04 | Cholesterol-free [1, 4]: 0.9221 | Complete [1, 5]: 0.9667 | Cholesterol-free media + simvastatin (0.04 μM) [2, 6]: 0.3022 | Complete Media [2, 7]: 0.9753 | Difference [2, 8]: 0.67

Methylergometrine (maleate)
Cholesterol-free [1, 9]: 1.022 | Difference [1, 10]: −0.31 | Cholesterol-free media + simvastatin (0.04 μM) [2, 6]: 1.017 | Complete Media [2, 7]: 0.9007 | Difference [2, 11]: −0.12

O=C(Cn1cnnn1)N[C@@H]1C(=O)N2C(C(=O)O)=C(CSc3nncs3)CS[C@H]12 [Ceftezole (sodium)]
Difference [1, 12]: −0.11 | Cholesterol-free [1, 13]: 1.089 | Complete [1, 7]: 0.9806 | Cholesterol-free media + simvastatin (0.04 μM) [2, 14]: 1.052 | Complete Media [2, 15]: 1.1 | Difference [2, 8]: 0.05

CCC(=O)O[C@]1(C(=O)CCl)[C@@H](C)C[C@H]2[C@@H]3CCC4=CC(=O)C=C[C@]4(C)[C@@]3(F)[C@@H](O)C[C@@]21C [Clobetasol propionate]
Difference [1, 3]: −0.20 | Cholesterol-free [1, 9]: 1.481 | Complete ([1]; NCI-H292 cells, complete media): 1.28 | Cholesterol-free media + simvastatin (0.04 μM) [2, 14]: 0.7256 | Complete Media [2, 15]: 0.7474 | Difference [2, 8]: 0.02

CCCN(CCc1cccs1)[C@H]1CCc2c(O)cccc2C1 [Rotigotine]
Difference [1, 3]: 0.07 | Cholesterol-free [1, 4]: 0.9004 | Complete [1, 5]: 0.9685 | Cholesterol-free media + simvastatin (0.04 μM) [2, 16]: 1.128 | Complete Media [2, 17]: 1.07 | Difference [2, 18]: −0.06

NCC1(CC(=O)O)CCCCC1 [Gabapentin (hydrochloride)]
Difference ([1]; Complete minus Cholesterol-free, […]): −0.52 | Cholesterol-free [1, 19]: 1.513 | Complete [1, 20]: 0.9969 | Cholesterol-free media + simvastatin (0.04 μM) [2, 16]: 1.09 | Complete Media [2, 17]: 1.102 | Difference ([2]; complete media minus cholesterol-free media + simvastatin (0.04 μM), […]): 0.01

O=c1[nH]c(=O)n([C@H]2C[C@H](O)[C@@H](CO)O2)cc1/C=C/Br [Brivudine]
Cholesterol-free [1, 9]: 1.108 | Complete ([1]; NCI-H292 cells, complete media): 0.7267 | Difference [1, 21]: −0.38 | Cholesterol-free media + simvastatin (0.04 μM) [2, 14]: 1.157 | Complete Media [2, 15]: 1.26 | Difference [2, 8]: 0.10

CN(CCN1CCC(OC(=O)Nc2ccccc2-c2ccccc2)CC1)C(=O)c1ccc(CN2CCC(C(N)=O)CC2)cc1 [Revefenacin]
Complete [1]: 0.9642 | Difference [1]: −0.65 | Cholesterol-free media + simvastatin (0.04 μM) [2]: 1.184 | Complete Media [2]: 1.038 | Difference [2]: −0.15

CS(=O)(=O)c1cc(F)cc2c3c(n(Cc4ccc(Cl)cc4)c12)[C@@H](CC(=O)O)CC3 [Laropiprant]
Cholesterol-free [1]: 1.338 | Complete [1]: 1.092 | Difference [1]: −0.25 | Cholesterol-free media + simvastatin (0.04 μM) [2]: 0.8957 | Complete Media [2]: 1.455 | Difference [2]: 0.56

Cc1[nH]c(=O)c(C#N)cc1-c1ccc2nccn2c1 [Olprinone (Hydrochloride)]
Difference [1, 3]: −0.27 | Cholesterol-free [1, 9]: 1.142 | Complete ([1]; NCI-H292 cells, complete media): 0.8745 | Cholesterol-free media + simvastatin (0.04 μM) [2, 16]: 1.653 | Complete Media [2, 17]: 1.64 | Difference [2, 18]: −0.01

O=C(NCC(O)CO)c1c(I)c(C(=O)NCC(O)CO)c(I)c(N(CCO)C(=O)CO)c1I (centres unmarked) [Ioversol]
Difference [1, 12]: −0.10 | Cholesterol-free [1, 13]: 1.162 | Complete [1, 7]: 1.064 | Cholesterol-free media + simvastatin (0.04 μM) [2, 14]: 1.012 | Complete Media [2, 15]: 1.097 | Difference [2, 8]: 0.09

CCN(CCO)CCCC(C)Nc1ccnc2cc(Cl)ccc12 (centres unmarked) [Hydroxychloroquine sulfate]
Difference [1, 22]: −0.72 | Complete [1, 20]: 0.895 | Cholesterol-free media + simvastatin (0.04 μM) [2, 14]: 0.9769 | Complete Media [2, 15]: 1.024 | Difference [2, 8]: 0.05

OCC(O)CO [Glycerol]
Cholesterol-free [1, 4]: 0.984 | Complete [1, 5]: 1.096 | Difference [1, 23]: 0.11 | Cholesterol-free media + simvastatin (0.04 μM) [2, 16]: 1.066 | Complete Media [2, 17]: 1.039 | Difference [2, 18]: −0.03

CC1CC(OC(=O)C(O)c2ccccc2)CC(C)(C)C1 (centres unmarked) [Cyclandelate]
Difference [1, 3]: −0.23 | Cholesterol-free [1, 9]: 1.162 | Complete ([1]; NCI-H292 cells, complete media): 0.935 | Cholesterol-free media + simvastatin (0.04 μM) [2, 24]: 1.188 | Complete Media [2, 25]: 0.9668 | Difference [2, 26]: −0.22

Cc1ncc(OC[C@@]2(c3cccc(F)c3)C[C@H]2C(=O)Nc2ccc(F)cn2)c(C)n1 [Lemborexant]
Cholesterol-free [1, 9]: 1.55 | Complete ([1]; NCI-H292 cells, complete media): 1.207 | Difference [1, 10]: −0.34 | Cholesterol-free media + simvastatin (0.04 μM) [2, 6]: 1.185 | Complete Media [2, 7]: 1.038 | Difference [2, 11]: −0.15

Cc1oc(=O)oc1COC(=O)C1=C([C@H]2CCCO2)S[C@@H]2[C@@H]([C@@H](C)O)C(=O)N12 [Faropenem daloxate]
Difference [1, 22]: −0.54 | Cholesterol-free [1, 19]: 1.449 | Complete [1, 20]: 0.9042 | Cholesterol-free media + simvastatin (0.04 μM) [2, 6]: 1.071 | Complete Media [2, 7]: 0.9664 | Difference [2, 26]: −0.10

CN(C)C(=O)Oc1cc(OC(=O)N(C)C)cc(C(O)CNC(C)(C)C)c1 (centres unmarked) [Bambuterol hydrochloride]
Cholesterol-free [1, 4]: 1.362 | Complete [1, 5]: 1.472 | Difference [1, 23]: 0.11 | Cholesterol-free media + simvastatin (0.04 μM) [2, 14]: 1.184 | Complete Media [2, 15]: 1.226 | Difference [2, 8]: 0.04

CCOc1cc([C@@H](CS(C)(=O)=O)N2C(=O)c3cccc(NC(C)=O)c3C2=O)ccc1OC [Apremilast]
Cholesterol-free [1, 4]: 1.127 | Complete [1, 5]: 1.856 | Difference [1, 23]: 0.73 | Cholesterol-free media + simvastatin (0.04 μM) [2, 6]: 1.396 | Complete Media [2, 7]: 1.812 | Difference [2, 8]: 0.42

CN(Cc1cc(Br)cc(Br)c1N)C1CCCCC1 [Bromhexine (hydrochloride)]
Difference [1, 12]: −0.09 | Cholesterol-free [1, 13]: 1.344 | Complete [1, 7]: 1.254 | Cholesterol-free media + simvastatin (0.04 μM) [2, 27]: 1.081 | Complete Media [2, 28]: 0.7932 | Difference [2, 26]: −0.29

O=C1CN2Cc3c(ccc(Cl)c3Cl)N=C2N1 [Anagrelide (hydrochloride)]
Difference [1, 3]: −0.26 | Cholesterol-free [1, 9]: 0.988 | Complete ([1]; NCI-H292 cells, complete media): 0.7326 | Cholesterol-free media + simvastatin (0.04 μM) [2, 27]: 1.221 | Complete Media [2, 28]: 0.9483 | Difference [2, 26]: −0.27

c1ccc(CN(CC2=NCCN2)c2ccccc2)cc1 [Antazoline (hydrochloride)]
Difference [1, 3]: −0.24 | Cholesterol-free [1, 9]: 1.006 | Complete ([1]; NCI-H292 cells, complete media): 0.7704 | Cholesterol-free media + simvastatin (0.04 μM) [2, 24]: 1.401 | Complete Media [2, 25]: 1.21 | Difference [2, 26]: −0.19

N[C@@H](Cc1cc(I)c(Oc2ccc(O)c(I)c2)c(I)c1)C(=O)O [Liothyronine]
Difference [1, 3]: −0.26 | Cholesterol-free [1, 9]: 1.173 | Complete ([1]; NCI-H292 cells, complete media): 0.9078 | Cholesterol-free media + simvastatin (0.04 μM) [2, 6]: 1.186 | Complete Media [2, 7]: 1.048 | Difference [2, 26]: −0.14

CCCCC1C(=O)N(c2ccccc2)N(c2ccc(O)cc2)C1=O (centres unmarked) [Oxyphenbutazone]
Difference [1, 12]: −0.11 | Cholesterol-free [1, 13]: 1.282 | Cholesterol-free media + simvastatin (0.04 μM) [2, 27]: 1.844 | Complete Media [2, 28]: 1.056 | Difference [2, 26]: −0.79

CNC(=O)c1c(I)c(NC(C)=O)c(I)c(C(=O)O)c1I [Iotalamic acid]
Difference [1, 3]: −0.29 | Cholesterol-free [1, 9]: 1.385 | Complete ([1]; NCI-H292 cells, complete media): 1.091 | Cholesterol-free media + simvastatin (0.04 μM) [2, 27]: 1.459 | Complete Media [2, 28]: 0.9854 | Difference [2, 26]: −0.47

Nc1c2c(nc3ccccc13)CCCC2 [Tacrine (hydrochloride)]
Cholesterol-free [1, 9]: 1.218 | Complete ([1]; NCI-H292 cells, complete media): 0.7601 | Difference [1, 21]: −0.46 | Cholesterol-free media + simvastatin (0.04 μM) [2, 6]: 1.139 | Complete Media [2, 7]: 1.054 | Difference [2, 26]: −0.08

C[C@@H](Oc1cc(-c2cnn(C3CCNCC3)c2)cnc1N)c1c(Cl)ccc(F)c1Cl [Crizotinib (hydrochloride)]
Cholesterol-free [1, 4]: 0.1813 | Complete [1, 5]: 0.2796 | Difference [1, 23]: 0.10 | Cholesterol-free media + simvastatin (0.04 μM) [2, 14]: 0.4168 | Complete Media [2, 15]: 0.4474 | Difference [2, 8]: 0.03

CO[C@H]1/C=C/O[C@@]2(C)Oc3c(C)c(O)c4c(c3C2=O)C2=NC3(CCN(CC(C)C)CC3)NC2=C(NC(=O)/C(C)=C\C=C\[C@H](C)[C@H](O)[C@@H](C)[C@@H](O)[C@@H](C)[C@H](OC(C)=O)[C@@H]1C)C4=O [Rifabutin]
Cholesterol-free [1, 4]: 0.7322 | Complete [1, 5]: 0.8211 | Difference [1, 23]: 0.09 | Cholesterol-free media + simvastatin (0.04 μM) [2, 24]: 1.205 | Complete Media [2, 25]: 0.9499 | Difference [2, 26]: −0.26

O=C(NC1CCNCC1)[C@@H]1CC[C@@H]2CN1C(=O)N2OS(=O)(=O)O [Relebactam]
Difference [1, 22]: −0.59 | Cholesterol-free [1, 19]: 1.438 | Complete [1, 20]: 0.845 | Cholesterol-free media + simvastatin (0.04 μM) [2, 14]: 0.885 | Complete Media [2, 15]: 0.9451 | Difference [2, 8]: 0.06

CC(C)(Oc1ccc(C(=O)c2ccc(Cl)cc2)cc1)C(=O)O [Fenofibric acid]
Cholesterol-free [1, 9]: 1.435 | Complete ([1]; NCI-H292 cells, complete media): 1.058 | Difference [1, 21]: −0.38 | Cholesterol-free media + simvastatin (0.04 μM) [2, 14]: 0.9473 | Complete Media [2, 15]: 1.061 | Difference [2, 8]: 0.11

— patent US20250144067A1, “PERSONALIZED STARVATION THERAPY FOR CANCER” (Faeth Therapeutics, Inc., priority 2021, published 2025)
